Reference: patent US10442807B2, “Aryl substituted bicyclic compounds as herbicides” (FMC Corporation, priority 2015, dated 2019)

Assays:
Format in all cases: in vivo
[1] = test system: pigweed (Amaranthus retroflexus); test: Test A postemergence application, visual injury rating; details: approx. 10 d, 0 = no effect, 100 = complete control
Procedure, shortened: (§1)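 In a loam soil and sand blend, either planted seeds got a preemergence directed soil spray or plants at the one- to two-leaf stage (2 to 10 cm tall) were sprayed, using test chemicals in a non-phytotoxic solvent mixture with surfactant. After about 10 d in a greenhouse, injury was visually rated against untreated controls on a 0-100 scale.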

[2] = test system: barnyardgrass (Echinochloa crus-galli); test: as above; details: approx. 10 d, 0 = no effect, 100 = complete control
Procedure, shortened: as §1

[3] = test system: foxtail, giant (giant foxtail, Setaria faberii); test: as above; details: approx. 10 d, 0 = no effect, 100 = complete control
Procedure, shortened: as §1

kochia (Kochia scoparia) [4] = test: as above; details: approx. 10 d, 0 = no effect, 100 = complete control
Procedure, shortened: as §1

[5] = test system: ragweed (common ragweed, Ambrosia elation); test: as above; details: approx. 10 d, 0 = no effect, 100 = complete control
Procedure, shortened: as §1

[6] = test system: wheat (Triticum aestivum); test: as above; details: approx. 10 d, 0 = no effect, 100 = complete control
Procedure, shortened: as §1

[7] = test system: blackgrass (Alopecurus myosuroides); test: as above; details: approx. 10 d, 0 = no effect, 100 = complete control
Procedure, shortened: as §1

[8] = test system: galium (catchweed bedstraw, Galium aparine); test: as above; details: approx. 10 d, 0 = no effect, 100 = complete control
Procedure, shortened: as §1

[9] = test system: ryegrass, Italian (Italian ryegrass, Lolium multiflorum); test: as above; details: approx. 10 d, 0 = no effect, 100 = complete control
Procedure, shortened: as §1

corn (Zea mays) = test: as above; details: approx. 10 d, 0 = no effect, 100 = complete control
Procedure, shortened: as §1

[10] = test system: barnyardgrass (Echinochloa crus-galli); test: Test B flooded paddy test, visual plant response rating; details: 250 g ai/ha; applied to paddy water at 2-leaf stage; rated after 13 to 15 days; scale 0 to 100, 0 is no effect, 100 is complete control
Procedure, shortened: (§2)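 Pots flooded to 3 cm above soil at treatment; compound applied directly into paddy water, depth held throughout. Greenhouse for 13 to 15 days, then visual rating versus untreated controls on a 0–100 scale (0 no effect, 100 complete control); dash means no result.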

rice (Oryza sativa) = test: as above; details: 250 g ai/ha; applied to paddy water at 2-leaf stage; rated after 13 to 15 days; scale 0 to 100, 0 is no effect, 100 is complete control
Procedure, shortened: as §2

[11] = test system: sedge, umbrella (small-flower umbrella sedge, Cyperus difformis); test: as above; details: 250 g ai/ha; applied to paddy water at 2-leaf stage; rated after 13 to 15 days; scale 0 to 100, 0 is no effect, 100 is complete control
Procedure, shortened: as §2

[12] = test system: ducksalad (Heteranthera limosa); test: as above; details: 250 g ai/ha; applied to paddy water at 2-leaf stage; rated after 13 to 15 days; scale 0 to 100, 0 is no effect, 100 is complete control
Procedure, shortened: as §2

[13] = test system: pigweed (Amaranthus retroflexus); test: Test A preemergence, directed soil spray, visual injury rating; details: approx. 10 d, 0 = no effect, 100 = complete control
Procedure, shortened: as §1

[14] = test system: barnyardgrass (Echinochloa crus-galli); test: as above; details: approx. 10 d, 0 = no effect, 100 = complete control
Procedure, shortened: as §1

[15] = test system: foxtail, giant (giant foxtail, Setaria faberii); test: as above; details: approx. 10 d, 0 = no effect, 100 = complete control
Procedure, shortened: as §1

kochia (Kochia scoparia) [16] = test: as above; details: approx. 10 d, 0 = no effect, 100 = complete control
Procedure, shortened: as §1

[17] = test system: ragweed (common ragweed, Ambrosia elation); test: as above; details: approx. 10 d, 0 = no effect, 100 = complete control
Procedure, shortened: as §1

[18] = test system: ryegrass, Italian (Italian ryegrass, Lolium multiflorum); test: as above; details: approx. 10 d, 0 = no effect, 100 = complete control
Procedure, shortened: as §1

SMILES	Pigweed plant response rating (0 to 100 scale) ([1]; 125 g ai/ha)	Pigweed plant response rating (0 to 100 scale) ([1]; 500 g ai/ha)	Barnyardgrass plant response rating (0 to 100 scale) ([2]; 125 g ai/ha)	Barnyardgrass plant response rating (0 to 100 scale) ([2]; 500 g ai/ha)	Foxtail, Giant plant response rating (0 to 100 scale) ([3]; 125 g ai/ha)	Foxtail, Giant plant response rating (0 to 100 scale) ([3]; 500 g ai/ha)	Kochia plant response rating (0 to 100 scale) (kochia (Kochia scoparia) [4]; 125 g ai/ha)	Kochia plant response rating (0 to 100 scale) (kochia (Kochia scoparia) [4]; 500 g ai/ha)	Ragweed plant response rating (0 to 100 scale) ([5]; 125 g ai/ha)	Ragweed plant response rating (0 to 100 scale) ([5]; 500 g ai/ha)	Wheat plant response rating (0 to 100 scale) ([6]; 125 g ai/ha)	Wheat plant response rating (0 to 100 scale) ([6]; 500 g ai/ha)	Blackgrass plant response rating (0 to 100 scale) ([7]; 125 g ai/ha)	Blackgrass plant response rating (0 to 100 scale) ([7]; 500 g ai/ha)	Galium plant response rating (0 to 100 scale) ([8]; 125 g ai/ha)	Galium plant response rating (0 to 100 scale) ([8]; 500 g ai/ha)	Ryegrass, Italian plant response rating (0 to 100 scale) ([9]; 125 g ai/ha)	Ryegrass, Italian plant response rating (0 to 100 scale) ([9]; 500 g ai/ha)	Corn plant response rating (0 to 100 scale) (corn (Zea mays); 125 g ai/ha)	Corn plant response rating (0 to 100 scale) (corn (Zea mays); 500 g ai/ha)	other results
CCc1ccc(C2Cn3c(C)nnc3C2C(=O)Nc2ccccc2SC)cc1 (stereo not drawn) [Compound 15]	0	0	0	0	0	0	0	0	0	0	0	0	0	0	0	0	0	0	0	0	Plant response rating, Flood, Barnyardgrass [10]: 0; Plant response rating, Flood, Rice (rice (Oryza sativa)): 20; Plant response rating, Flood, Sedge, Umbrella [11]: 0; Plant response rating, Flood, Ducksalad [12]: 50; Pigweed plant response rating (0 to 100 scale) ([13]; 125 g ai/ha): 0; Pigweed plant response rating (0 to 100 scale) ([13]; 500 g ai/ha): 0; Barnyardgrass plant response rating (0 to 100 scale) ([14]; 125 g ai/ha): 0; Barnyardgrass plant response rating (0 to 100 scale) ([14]; 500 g ai/ha): 0; Foxtail, Giant plant response rating (0 to 100 scale) ([15]; 125 g ai/ha): 0; Foxtail, Giant plant response rating (0 to 100 scale) ([15]; 500 g ai/ha): 0; Kochia plant response rating (0 to 100 scale) (kochia (Kochia scoparia) [16]; 125 g ai/ha): 0; Kochia plant response rating (0 to 100 scale) (kochia (Kochia scoparia) [16]; 500 g ai/ha): 0; Ragweed plant response rating (0 to 100 scale) ([17]; 125 g ai/ha): 0; Ragweed plant response rating (0 to 100 scale) ([17]; 500 g ai/ha): 0; Ryegrass, Italian plant response rating (0 to 100 scale) ([18]; 125 g ai/ha): 0; Ryegrass, Italian plant response rating (0 to 100 scale) ([18]; 500 g ai/ha): 0
Cc1ccc(C2Cn3cnnc3C2C(=O)Nc2cccc(F)c2F)cc1C (stereo not drawn) [Compound 16]	0	0	60	80	60	80	30	30	0	50	0	50	0	60	40	50	0	50	0	70	Plant response rating, Flood, Barnyardgrass [10]: 50; Plant response rating, Flood, Rice (rice (Oryza sativa)): 15; Plant response rating, Flood, Sedge, Umbrella [11]: 0; Plant response rating, Flood, Ducksalad [12]: 75; Pigweed plant response rating (0 to 100 scale) ([13]; 125 g ai/ha): 0; Pigweed plant response rating (0 to 100 scale) ([13]; 500 g ai/ha): 0; Barnyardgrass plant response rating (0 to 100 scale) ([14]; 125 g ai/ha): 70; Barnyardgrass plant response rating (0 to 100 scale) ([14]; 500 g ai/ha): 90; Foxtail, Giant plant response rating (0 to 100 scale) ([15]; 125 g ai/ha): 90; Foxtail, Giant plant response rating (0 to 100 scale) ([15]; 500 g ai/ha): 90; Kochia plant response rating (0 to 100 scale) (kochia (Kochia scoparia) [16]; 125 g ai/ha): 70; Kochia plant response rating (0 to 100 scale) (kochia (Kochia scoparia) [16]; 500 g ai/ha): 80; Ragweed plant response rating (0 to 100 scale) ([17]; 125 g ai/ha): 0; Ragweed plant response rating (0 to 100 scale) ([17]; 500 g ai/ha): 50; Ryegrass, Italian plant response rating (0 to 100 scale) ([18]; 125 g ai/ha): 0; Ryegrass, Italian plant response rating (0 to 100 scale) ([18]; 500 g ai/ha): 60
CCCc1nnc2n1CC(c1ccc(C(F)(F)F)cc1)C2C(=O)Nc1cccc(F)c1F (stereo not drawn) [Compound 17]	0	40	0	30	0	30	20	50	0	0	0	0	0	20	40	50	0	0	0	0	Plant response rating, Flood, Barnyardgrass [10]: 0; Plant response rating, Flood, Rice (rice (Oryza sativa)): 0; Plant response rating, Flood, Sedge, Umbrella [11]: 0; Plant response rating, Flood, Ducksalad [12]: 30; Pigweed plant response rating (0 to 100 scale) ([13]; 125 g ai/ha): 0; Pigweed plant response rating (0 to 100 scale) ([13]; 500 g ai/ha): 20; Barnyardgrass plant response rating (0 to 100 scale) ([14]; 125 g ai/ha): 0; Barnyardgrass plant response rating (0 to 100 scale) ([14]; 500 g ai/ha): 50; Foxtail, Giant plant response rating (0 to 100 scale) ([15]; 125 g ai/ha): 30; Foxtail, Giant plant response rating (0 to 100 scale) ([15]; 500 g ai/ha): 90; Kochia plant response rating (0 to 100 scale) (kochia (Kochia scoparia) [16]; 125 g ai/ha): 0; Kochia plant response rating (0 to 100 scale) (kochia (Kochia scoparia) [16]; 500 g ai/ha): 30; Ragweed plant response rating (0 to 100 scale) ([17]; 125 g ai/ha): 0; Ragweed plant response rating (0 to 100 scale) ([17]; 500 g ai/ha): 0; Ryegrass, Italian plant response rating (0 to 100 scale) ([18]; 125 g ai/ha): 0; Ryegrass, Italian plant response rating (0 to 100 scale) ([18]; 500 g ai/ha): 0
CSc1ccccc1NC(=O)C1c2nncn2CC1c1ccc(C)c(C)c1 (stereo not drawn) [Compound 18]	0	0	0	30	0	20	20	20	0	0	0	0	0	0	20	20	0	0	0	0	Plant response rating, Flood, Barnyardgrass [10]: 0; Plant response rating, Flood, Rice (rice (Oryza sativa)): 0; Plant response rating, Flood, Sedge, Umbrella [11]: 0; Plant response rating, Flood, Ducksalad [12]: 40; Pigweed plant response rating (0 to 100 scale) ([13]; 125 g ai/ha): 0; Pigweed plant response rating (0 to 100 scale) ([13]; 500 g ai/ha): 0; Barnyardgrass plant response rating (0 to 100 scale) ([14]; 125 g ai/ha): 20; Barnyardgrass plant response rating (0 to 100 scale) ([14]; 500 g ai/ha): 60; Foxtail, Giant plant response rating (0 to 100 scale) ([15]; 125 g ai/ha): 0; Foxtail, Giant plant response rating (0 to 100 scale) ([15]; 500 g ai/ha): 80; Kochia plant response rating (0 to 100 scale) (kochia (Kochia scoparia) [16]; 125 g ai/ha): 0; Kochia plant response rating (0 to 100 scale) (kochia (Kochia scoparia) [16]; 500 g ai/ha): 0; Ragweed plant response rating (0 to 100 scale) ([17]; 125 g ai/ha): 0; Ragweed plant response rating (0 to 100 scale) ([17]; 500 g ai/ha): 30; Ryegrass, Italian plant response rating (0 to 100 scale) ([18]; 125 g ai/ha): 0; Ryegrass, Italian plant response rating (0 to 100 scale) ([18]; 500 g ai/ha): 20
